Read-outs that look alike come from different tables or passages of the source.
Assays:
ABL1(H396P) = ABL1(H396P) (Homo sapiens, UniProt P00519, H396P); conditions: 0.1 µM, binder
BRAF = BRAF (Homo sapiens, UniProt P15056); conditions: 0.1 µM; binder
CASK = CASK (Homo sapiens, UniProt O14936); conditions: 0.1 µM; binder
CDC2L1 = CDC2L1 (Homo sapiens, UniProt P21127); conditions: 0.1 µM; binder
CSNK1A1L = CSNK1A1L (Homo sapiens, UniProt Q8N752); conditions: 0.1 µM; binder
EPHA5 = EPHA5 (Homo sapiens, UniProt P54756); conditions: 0.1 µM; binder
ERK3 = ERK3 (Homo sapiens, UniProt Q16659); conditions: 0.1 µM; binder
Sequence of ERK3 (Q16659 whole entry): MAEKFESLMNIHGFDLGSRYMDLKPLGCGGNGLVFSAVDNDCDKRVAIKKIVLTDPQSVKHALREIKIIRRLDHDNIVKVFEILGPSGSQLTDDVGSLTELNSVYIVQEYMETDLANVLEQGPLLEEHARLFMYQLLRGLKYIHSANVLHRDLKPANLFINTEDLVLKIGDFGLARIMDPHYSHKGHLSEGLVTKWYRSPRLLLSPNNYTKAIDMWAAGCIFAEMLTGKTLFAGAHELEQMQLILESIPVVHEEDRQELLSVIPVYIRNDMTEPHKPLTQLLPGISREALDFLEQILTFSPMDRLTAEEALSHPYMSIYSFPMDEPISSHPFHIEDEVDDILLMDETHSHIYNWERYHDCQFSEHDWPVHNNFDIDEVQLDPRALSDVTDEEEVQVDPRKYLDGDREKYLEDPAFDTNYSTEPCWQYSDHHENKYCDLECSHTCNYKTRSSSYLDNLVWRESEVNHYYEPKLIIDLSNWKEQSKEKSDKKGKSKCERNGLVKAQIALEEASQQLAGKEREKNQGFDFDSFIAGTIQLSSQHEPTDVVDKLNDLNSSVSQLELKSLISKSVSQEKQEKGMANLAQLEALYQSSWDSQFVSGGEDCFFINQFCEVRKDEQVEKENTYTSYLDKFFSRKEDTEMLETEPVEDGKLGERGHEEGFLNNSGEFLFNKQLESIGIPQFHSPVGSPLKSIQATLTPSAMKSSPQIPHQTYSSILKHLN

FLT1 = FLT1 (Homo sapiens, UniProt P17948); conditions: 0.1 µM; binder
FLT3(ITD) = FLT3(ITD) (Homo sapiens, UniProt P36888); conditions: 0.1 µM; binder
Sequence of FLT3(ITD) (P36888 564-993, change not shown): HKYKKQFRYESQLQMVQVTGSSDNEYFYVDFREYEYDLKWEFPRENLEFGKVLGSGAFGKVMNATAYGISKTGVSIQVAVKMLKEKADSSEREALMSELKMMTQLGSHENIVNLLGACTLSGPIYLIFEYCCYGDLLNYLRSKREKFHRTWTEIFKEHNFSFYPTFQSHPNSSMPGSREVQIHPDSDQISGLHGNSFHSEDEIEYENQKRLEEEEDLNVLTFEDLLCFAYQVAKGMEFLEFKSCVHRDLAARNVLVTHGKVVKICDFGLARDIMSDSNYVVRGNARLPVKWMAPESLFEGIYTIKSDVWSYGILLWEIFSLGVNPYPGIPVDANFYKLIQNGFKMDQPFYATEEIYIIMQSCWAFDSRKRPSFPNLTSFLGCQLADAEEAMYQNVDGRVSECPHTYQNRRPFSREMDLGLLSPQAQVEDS

IKK-alpha = IKK-alpha (Homo sapiens, UniProt O15111); conditions: 0.1 µM; binder
Sequence of IKK-alpha (O15111 whole entry): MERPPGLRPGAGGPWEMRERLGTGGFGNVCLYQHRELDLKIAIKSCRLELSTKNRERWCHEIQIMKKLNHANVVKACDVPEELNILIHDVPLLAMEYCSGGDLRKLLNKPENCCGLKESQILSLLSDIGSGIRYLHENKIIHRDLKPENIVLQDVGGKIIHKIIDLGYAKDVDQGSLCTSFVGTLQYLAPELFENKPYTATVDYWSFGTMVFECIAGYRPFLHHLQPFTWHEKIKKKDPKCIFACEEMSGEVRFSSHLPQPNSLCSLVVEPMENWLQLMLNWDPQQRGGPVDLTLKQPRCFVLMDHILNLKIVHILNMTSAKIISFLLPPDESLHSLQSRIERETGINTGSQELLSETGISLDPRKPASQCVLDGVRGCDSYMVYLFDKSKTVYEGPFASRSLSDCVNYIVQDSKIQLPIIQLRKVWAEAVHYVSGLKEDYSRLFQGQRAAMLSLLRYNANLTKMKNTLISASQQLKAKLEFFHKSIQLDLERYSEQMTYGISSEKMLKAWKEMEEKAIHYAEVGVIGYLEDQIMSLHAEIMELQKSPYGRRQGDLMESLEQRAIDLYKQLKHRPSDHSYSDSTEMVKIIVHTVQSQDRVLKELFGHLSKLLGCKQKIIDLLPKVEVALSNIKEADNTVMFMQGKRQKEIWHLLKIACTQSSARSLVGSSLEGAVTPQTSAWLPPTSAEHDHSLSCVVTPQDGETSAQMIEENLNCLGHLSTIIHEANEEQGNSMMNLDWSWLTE

IRAK4 = IRAK4 (Homo sapiens, UniProt Q9NWZ3); conditions: 0.1 µM; binder
NEK3 = NEK3 (Homo sapiens, UniProt P51956); conditions: 0.1 µM; binder
Sequence of NEK3 (P51956 whole entry): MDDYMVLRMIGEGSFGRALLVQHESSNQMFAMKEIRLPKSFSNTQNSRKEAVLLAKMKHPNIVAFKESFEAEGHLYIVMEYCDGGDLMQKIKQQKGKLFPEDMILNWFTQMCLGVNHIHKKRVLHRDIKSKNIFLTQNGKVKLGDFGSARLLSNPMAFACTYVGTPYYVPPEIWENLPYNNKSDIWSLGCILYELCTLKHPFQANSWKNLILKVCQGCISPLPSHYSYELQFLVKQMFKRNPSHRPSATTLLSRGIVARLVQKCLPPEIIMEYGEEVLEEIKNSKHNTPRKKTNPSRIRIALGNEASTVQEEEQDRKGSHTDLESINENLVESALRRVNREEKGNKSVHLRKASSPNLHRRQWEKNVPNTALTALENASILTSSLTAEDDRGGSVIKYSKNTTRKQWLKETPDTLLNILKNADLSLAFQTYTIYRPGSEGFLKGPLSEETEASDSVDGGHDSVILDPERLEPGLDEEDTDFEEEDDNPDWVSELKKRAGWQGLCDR

PCTK3 = PCTK3 (Homo sapiens, UniProt Q07002); conditions: 0.1 µM; binder
PDGFRA = PDGFRA (Homo sapiens, UniProt P16234); conditions: 0.1 µM; binder
PIK3CA(Q546K) = PIK3CA(Q546K) (Homo sapiens, UniProt P42336, Q546K); conditions: 0.1 µM; binder
PKAC-beta = PKAC-beta (Homo sapiens, UniProt P22694); conditions: 0.1 µM; binder
PKN2 = PKN2 (Homo sapiens, UniProt Q16513); conditions: 0.1 µM; binder
PRKG1 = PRKG1 (Homo sapiens, UniProt Q13976); conditions: 0.1 µM; binder
PRKR = PRKR (Homo sapiens, UniProt P19525); conditions: 0.1 µM; binder
Sequence of PRKR (P19525 whole entry): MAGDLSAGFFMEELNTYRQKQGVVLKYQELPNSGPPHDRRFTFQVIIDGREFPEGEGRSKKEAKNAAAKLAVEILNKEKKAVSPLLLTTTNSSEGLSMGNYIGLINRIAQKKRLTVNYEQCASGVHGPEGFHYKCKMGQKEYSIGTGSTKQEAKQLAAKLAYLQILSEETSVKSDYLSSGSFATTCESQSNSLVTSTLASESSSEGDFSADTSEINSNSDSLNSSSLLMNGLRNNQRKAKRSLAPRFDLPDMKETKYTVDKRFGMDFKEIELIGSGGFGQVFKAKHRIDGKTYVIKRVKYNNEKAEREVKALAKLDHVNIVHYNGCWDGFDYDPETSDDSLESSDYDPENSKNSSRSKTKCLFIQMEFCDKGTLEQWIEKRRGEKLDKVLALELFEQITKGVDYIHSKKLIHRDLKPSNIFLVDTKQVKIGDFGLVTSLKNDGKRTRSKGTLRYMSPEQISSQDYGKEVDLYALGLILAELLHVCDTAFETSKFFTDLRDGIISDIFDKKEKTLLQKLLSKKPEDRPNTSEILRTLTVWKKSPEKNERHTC

PYK2 = PYK2 (Homo sapiens, UniProt Q14289); conditions: 0.1 µM; binder
Sequence of PYK2 (Q14289 whole entry): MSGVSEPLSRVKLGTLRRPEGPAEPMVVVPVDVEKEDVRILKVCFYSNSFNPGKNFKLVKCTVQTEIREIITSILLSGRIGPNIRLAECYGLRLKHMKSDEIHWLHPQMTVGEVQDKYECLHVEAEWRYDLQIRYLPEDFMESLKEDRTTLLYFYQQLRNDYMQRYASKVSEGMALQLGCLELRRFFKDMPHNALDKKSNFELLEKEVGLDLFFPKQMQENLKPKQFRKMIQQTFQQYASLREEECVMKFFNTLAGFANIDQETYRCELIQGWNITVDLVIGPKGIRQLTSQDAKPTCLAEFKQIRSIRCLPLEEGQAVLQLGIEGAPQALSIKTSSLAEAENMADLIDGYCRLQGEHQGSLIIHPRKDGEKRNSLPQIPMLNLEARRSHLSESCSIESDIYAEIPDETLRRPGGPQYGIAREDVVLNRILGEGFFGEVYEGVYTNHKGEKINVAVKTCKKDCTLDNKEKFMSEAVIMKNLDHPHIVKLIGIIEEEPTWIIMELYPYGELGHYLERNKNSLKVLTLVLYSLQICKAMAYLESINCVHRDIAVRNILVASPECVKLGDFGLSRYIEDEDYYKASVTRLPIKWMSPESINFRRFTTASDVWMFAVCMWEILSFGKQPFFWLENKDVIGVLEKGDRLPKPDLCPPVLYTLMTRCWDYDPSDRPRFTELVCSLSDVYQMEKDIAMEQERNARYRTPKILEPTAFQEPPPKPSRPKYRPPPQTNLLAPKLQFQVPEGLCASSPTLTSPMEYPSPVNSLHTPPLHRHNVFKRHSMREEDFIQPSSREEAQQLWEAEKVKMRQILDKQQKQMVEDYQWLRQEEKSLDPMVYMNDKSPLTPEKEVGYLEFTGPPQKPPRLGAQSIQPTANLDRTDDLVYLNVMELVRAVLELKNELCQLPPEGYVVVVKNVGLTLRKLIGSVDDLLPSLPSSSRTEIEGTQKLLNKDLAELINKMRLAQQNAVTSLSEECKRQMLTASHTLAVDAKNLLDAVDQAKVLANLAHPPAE

RAF1 = RAF1 (Homo sapiens, UniProt P04049); conditions: 0.1 µM; binder
ROS1 = ROS1 (Homo sapiens, UniProt P08922); conditions: 0.1 µM; binder
SGK = SGK (Homo sapiens, UniProt O00141); conditions: 0.1 µM; binder
SIK2 = SIK2 (Homo sapiens, UniProt Q9H0K1); conditions: 0.1 µM; binder
Sequence of SIK2 (Q9H0K1 whole entry): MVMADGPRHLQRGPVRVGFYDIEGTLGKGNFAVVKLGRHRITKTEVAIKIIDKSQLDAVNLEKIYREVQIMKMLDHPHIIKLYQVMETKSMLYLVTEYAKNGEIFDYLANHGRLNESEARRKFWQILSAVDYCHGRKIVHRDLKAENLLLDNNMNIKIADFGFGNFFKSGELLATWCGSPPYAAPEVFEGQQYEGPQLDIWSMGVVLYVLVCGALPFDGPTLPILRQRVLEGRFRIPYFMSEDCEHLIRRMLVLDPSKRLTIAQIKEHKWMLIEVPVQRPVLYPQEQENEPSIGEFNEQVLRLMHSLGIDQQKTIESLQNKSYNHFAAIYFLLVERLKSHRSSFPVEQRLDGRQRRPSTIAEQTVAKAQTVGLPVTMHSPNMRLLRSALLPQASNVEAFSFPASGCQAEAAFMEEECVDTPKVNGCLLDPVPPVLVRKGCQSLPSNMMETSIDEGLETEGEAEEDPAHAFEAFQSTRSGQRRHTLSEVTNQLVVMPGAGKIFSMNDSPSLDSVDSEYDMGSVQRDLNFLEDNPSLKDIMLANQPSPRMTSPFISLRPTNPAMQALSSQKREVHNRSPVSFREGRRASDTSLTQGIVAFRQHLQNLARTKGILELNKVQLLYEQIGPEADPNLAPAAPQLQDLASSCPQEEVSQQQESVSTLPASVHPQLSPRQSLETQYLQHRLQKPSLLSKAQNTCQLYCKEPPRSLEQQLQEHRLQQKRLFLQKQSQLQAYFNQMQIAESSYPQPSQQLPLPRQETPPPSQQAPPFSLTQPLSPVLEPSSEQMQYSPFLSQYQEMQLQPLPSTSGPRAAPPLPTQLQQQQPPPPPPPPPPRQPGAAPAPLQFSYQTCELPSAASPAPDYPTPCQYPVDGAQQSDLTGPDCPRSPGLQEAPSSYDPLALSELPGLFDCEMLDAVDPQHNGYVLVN

TAOK3 = TAOK3 (Homo sapiens, UniProt Q9H2K8); conditions: 0.1 µM; binder
TBK1 = TBK1 (Homo sapiens, UniProt Q9UHD2); conditions: 0.1 µM; binder
TEC = TEC (Homo sapiens, UniProt P42680); conditions: 0.1 µM; binder
TRPM6 = TRPM6 (Homo sapiens, UniProt Q9BX84); conditions: 0.1 µM; binder
ULK3 = ULK3 (Homo sapiens, UniProt Q6PHR2); conditions: 0.1 µM; binder
VRK2 = VRK2 (Homo sapiens, UniProt Q86Y07); conditions: 0.1 µM; binder
WNK2 = WNK2 (Homo sapiens, UniProt Q9Y3S1); conditions: 0.1 µM; binder

## CNc1ncc2cc(-c3ccc(-c4cccc(C)n4)cc3Cl)c(=O)n(C[C@H]3OC[C@H](N)CO3)c2n1 [compound 6, G-5555]
ABL1(H396P); nonphosphorylated
  Percent Control: 79%
ABL1(H396P); phosphorylated
  Percent Control: 97%
BRAF
  Percent Control: 100%
CASK
  Percent Control: 96%
CDC2L1
  Percent Control: 100%
CSNK1A1L
  Percent Control: 100%
EPHA5
  Percent Control: 100%
ERK3
  Percent Control: 100%
FLT1
  Percent Control: 94%
FLT3(ITD)
  Percent Control: 100%
IKK-alpha
  Percent Control: 92%
IRAK4
  Percent Control: 95%
NEK3
  Percent Control: 93%
PCTK3
  Percent Control: 100%
PDGFRA
  Percent Control: 100%
PIK3CA(Q546K)
  Percent Control: 85%
PKAC-beta
  Percent Control: 100%
PKN2
  Percent Control: 100%
PRKG1
  Percent Control: 100%
PRKR
  Percent Control: 100%
PYK2
  Percent Control: 100%
RAF1
  Percent Control: 100%
ROS1
  Percent Control: 100%
SGK
  Percent Control: 99%
SIK2
  Percent Control: 6.5%
TAOK3
  Percent Control: 100%
TBK1
  Percent Control: 100%
TEC
  Percent Control: 100%
TRPM6
  Percent Control: 100%
ULK3
  Percent Control: 90%
VRK2
  Percent Control: 94%
WNK2
  Percent Control: 100%

From publication doi:10.1101/2021.04.08.439011v1 (biorxiv, 2021)
